Data as given in US10428159B2, “Blocking monoclonal antibodies to AGR2 and its receptor C4.4A” (Board of Regents, The University of Texas System, priority 2014, dated 2019).

Key:
[1] = test system: AsPC-1 cells; assay: Apoptosis assay (Gem, rAGR2, antibodies); assay type: cell-based; conditions: AsPC-1, 5 μM Gem
Experimental: FIGS. 11A-D. Monoclonal antibodies developed bind respectively to AGR2 and C4.4A proteins and blocked their functions. From the endogenous lysate (SU86.86/Panc-1), AGR2 (18 kD) and C4.4A (50 kD) were identified by a panel of mAbs. […] Extra bands identified with the endogenous protein were re-confirmed with the recombinant protein. For apoptosis studies, AsPC-1 cells were treated without or with Gem (0.5 μM) and rAGR2 (100 nM) and with purified (A) AGR2 and (B) C4.4A Abs (1 μM). Commercially available Abs served as control. […] Horizontal line represents median apoptotic value. Data shown are mean±SE for 3 experiments (*p<0.05). (C,D) Binding assays were conducted with purified (C) AGR2 and (D) C4.4A Abs as selected from the apoptosis assay as having high blocking efficiency. ELISA assays were conducted by coating antigenic peptide (0.5 μg) and probed with respective purified Abs. Data shown are mean±SE for 3 experiments (*p <0.05). Based on high specificity and binding, clone 28B for AGR2 and 1A for C4.4A were selected. Purified Abs were also run on 4-20% gradient gel to check for the presence of heavy (50 kD) and light chains (25 kD).
(§1) Cell growth, migration, invasion and apoptosis assays. Wild-type and siRNA transfected PDAC cells were grown with rAGR2 (0-500 nM) in the presence and absence of antibodies (polyclonal commercial or newly developed mAbs) (1 μM). The medium was refreshed daily. […]

[2] = test system: BxPC-3 cells; assay: Apoptosis assay (Gem, rAGR2); assay type: cell-based; conditions: BxPC-3, Gem 1 μM
Experimental: FIGS. 7A-D. Extracellular rAGR2-mediated functions. (A) Pancreatic cancer cells (BxPC-3 and MiaPaCa-2) were used for these studies. Extracellular addition of rAGR2 caused a significant dose-dependent increase in proliferation (BxPC-3-3-fold increase; MiaPaCa-2-4-fold increase; p<0.05). Pancreatic cancer cells were plated (2×10^4 cells) with and without rAGR2 (0-100 nM) on a Boyden's chamber for migration studies (B) and on an invasion chamber for invasion studies (C). After 22 h, cells were fixed with methanol and stained by hematoxylin, and cells in 10 random fields at 100× magnification were photographed and counted. Extracellular addition of rAGR2 caused a significant dose-dependent increase in migration (BxPC-3-7-fold increase; MiaPaCa-2-3-fold increase) and invasion (BxPC-3-10-fold increase; MiaPaCa-2-3-fold increase). (D) For analysis of apoptosis, BxPC-3 cells were treated with and without Gem (1 μM) and AGR2 (100 nM). […] Data shown are mean±SE for 3 experiments (*p<0.05 vs. control).
as §1, with “daily. Cell numbers were estimated after 48 h by MTS assay as described previously (Ramachandran et al., 2007).” for “daily.”

[3] = test system: AsPC-1 cells; assay: Model 1 AsPC-1 aggressive cell model, orthotopic tumors; assay type: in vivo, athymic nude mice
Experimental: In vivo studies. In vivo experiments were conducted with athymic nude mice (B6.Cg-Foxn1^nu/J—female—age 9 weeks) (NCI, Bethesda, Md.) according to the UT MDACC regulatory standards and IUCAC committee approval. Orthotopic tumors were developed with luciferase-labeled cells (0.25×10^6). IgG (Cat #OB010701; Southern Biotech, Birmingham, Ala.) served as a control Ab.
Model 1 (AsPC-1-Aggressive Cell Model)—Two weeks after the injection of the aggressive AsPC-1 cells, when the tumors weighed less than 0.5 g (as surgically confirmed from a parallel untreated group), mice (n=6) were treated with control or mAbs (5 mg each of AGR2/C4.4A mAb in combination/kg/body weight/twice a week/i.p) and with or without Gem (100 mg/kg body weight/once a week/i.p) until all of the control mice had died (seven weeks). Tumor weight and metastasis to liver and lung were compared between control and treated groups ex vivo at the end of the experiment.

## Nc1ccn([C@@H]2O[C@H](CO)[C@@H](O)C2(F)F)c(=O)n1 [Gem, Gemcitabine, reference compound]
[1]
  increase in apoptosis: 3 fold
[2]
  increase in apoptosis: 1 fold
[3]; Gem 100 mg/kg once a week i.p., alone or in combination with the mAbs
  effect on tumor growth and metastasis incidence: no significant effect
[3]; after four weeks of treatment (six weeks total), when all control Ab mice had died
  mice remained alive: 30%
